# According to patent US20200079765A1, “SUBSTITUTED HETEROARYL PYRROLONES AND SALTS THEREOF AND USE THEREOF AS HERBICIDAL ACTIVE SUBSTANCES” (Bayer CropScience Aktiengesellschaft, priority 2016, published 2020):
# Columns and labels:
# [1] = target: T1, photosystem II (PS II) (Spinacia oleracea, UniProt P69560); experiment: Measurement of the PS II activity in thylakoid membranes (DCPIP reduction, Experimental Part 3, Table E1); assay type: biochemical; details: spinach thylakoid membranes
# T1 construct: the chloroplasts were osmotically ruptured and the thylakoid membranes were then obtained by centrifugation; from tissue; host or cells: thylakoid membranes from fresh spinach leaves
# Procedure: Cooled fresh spinach leaves were comminuted and homogenized in 50 mM phosphate buffer, pH 6.8. 10 mM KCl, 0.34 M sucrose (sucrose buffer) (blender, 1 g of plant material/ml). The homogenate was subsequently filtered through 4 layers of Miracloth and the chloroplasts were isolated by centrifugation, i.e. 10 min of centrifugation at 4400×g (4° C.). The sediment was suspended in 25 ml of sucrose buffer and re-centrifuged for 10 min at 4400×g (4° C.). The sediment was then suspended in 40 ml of 50 mM phosphate buffer, pH 6.8, 10 mM KCl, without sucrose. In this step, the chloroplasts were osmotically ruptured and the thylakoid membranes were then obtained by centrifugation (10 min, 4400×g, 4° C.). The membrane sediment was finally suspended in about 20 ml of 50 mM phosphate buffer, pH 6.8, 10 mM KCl. Following protein determination and activity determination, the membrane suspension was divided into aliquots and frozen in liquid nitrogen. The aliquots were stored at −80° C. Under these conditions, the photosystem II preparation was storage stable for at least three months. The activity determination of photosystem II (PS II) was then carried out using the following test principle: The electron transfer from PS II to an artificial electron acceptor, 2,6-dichlorophenolindophenol (DCPIP), was measured with exposure to light. The concentration of the blue oxidized form of DCPIP was determined spectrophotometrically at wavelength λ=595 nm. […] The activity determination was carried out in microtiter plates (96 cavities) in a reaction volume of 200 μl. Here, 155 μl of dilute membrane suspension were initially charged in 50 mM of phosphate buffer, pH 6.8, 10 mM KCl. Depending on the activity of the PS II preparation, the dilution was adjusted such that the measurement of the decrease in absorption (λ=595 nm) was linear for at least 10 min. In each case 5 μl solution of the test compounds of a concentration of 100 μM in DMSO were added to the enzyme suspension; controls contained 5 μl DMSO; the final concentration of DMSO in the reaction batch was thus 2.5% (v/v); this concentration had no adverse effect on the enzymatic activity. On each microtiter plate, a known PS II inhibitor, for example metribuzin, was used as standard, which allowed the quality of the PS II test to be assessed. The reaction was started by addition of 40 μl DCPIP solution (600 μM in distilled water); the final concentration of DCPIP was 120 μM. Measurement of absorption was carried out over a period of 10 min at 22° C. and with exposure to light. Using metribuzin as comparative substance, the results for the efficacy of the compounds of the general formula (I) at 100 μM are stated in the table below using the following classification: ++++ (inhibition≥90%), +++ (90%>inhibition≥70%), ++ (70%>inhibition≥50%), + (50%>inhibition≥30%).
# Effects of selected compounds of the general formula (I) according to the following table E1: […]
# [2] = test system: Lolium rigidum; experiment: Herbicidal pre-emergence action (Experimental Part 2, D); assay type: in vivo; details: pre-emergence (Part 2), application rate 1280 g/ha, scored visually after about 3 weeks
# Text: (§1) Seeds of mono- and dicotyledonous weed plants were placed in plastic pots in sandy loam soil (doubly sown with in each case one species of mono- or dicotyledonous weed plants per pot) and covered with soil. The compounds of the invention, formulated in the form of wettable powders (WP) or as emulsion concentrates (EC), were then applied onto the surface of the covering soil as aqueous suspension or emulsion with addition of 0.5% additive at a water application rate of 600 liters per hectare (converted). After the treatment, the pots are placed in a greenhouse and kept under good growth conditions for the trial plants. After about 3 weeks, the effect of the preparations was scored visually in comparison with untreated controls as percentages. For example, 100% activity=the plants have died, 0% activity=like control plants. Tables D1 to D8 below show the effects of selected compounds of the general formula (I) according to Tables I.1 to I.116 on various harmful plants and an application rate corresponding to 1280 g/ha or 320 g/ha, which were obtained by the experimental procedure mentioned above.
# [3] = test system: Poa annua; experiment: as above; assay type: in vivo; details: pre-emergence (Part 2), scored visually after about 3 weeks
# Text: as §1
# [4] = test system: Stellaria media; experiment: as above; assay type: in vivo; details: pre-emergence (Part 2), scored visually after about 3 weeks
# Text: as §1
# [5] = test system: Setaria viridis; experiment: as above; assay type: in vivo; details: pre-emergence (Part 2), application rate 1280 g/ha, scored visually after about 3 weeks
# Text: as §1
# [6] = test system: Abutilon theophrasti; experiment: Herbicidal post-emergence action (Experimental Part 2, C); assay type: in vivo; details: post-emergence (Part 2), rated visually after about 3 weeks
# Procedure: (§2) Seeds of mono- and dicotyledonous weed plants were placed in plastic pots in sandy loam soil (doubly sown with in each case one species of mono- or dicotyledonous weed plants per pot), covered with soil and cultivated in a greenhouse under controlled growth conditions. 2 to 3 weeks after sowing, the test plants were treated at the one-leaf stage. The compounds of the invention, formulated in the form of wettable powders (WP) or as emulsion concentrates (EC), were applied onto the green parts of the plants as aqueous suspension or emulsion with addition of 0.5% additive at a water application rate of 600 liters per hectare (converted). After the test plants had been kept in the greenhouse under optimum growth conditions for about 3 weeks, the activity of the preparations was rated visually in comparison to untreated controls. For example, 100% activity=the plants have died, 0% activity=like control plants. Tables C1 to C8 below show the effects of selected compounds of the general formula (I) according to Tables I.1 to I.116 on various harmful plants and an application rate corresponding to 1280 g/ha or 320 g/ha, which were obtained by the experimental procedure mentioned above.
# [7] = test system: Matricaria inodora; experiment: as above; assay type: in vivo; details: post-emergence (Part 2), rated visually after about 3 weeks
# Procedure: as §2
# [8] = test system: Amaranthus retroflexus; experiment: as above; assay type: in vivo; details: post-emergence (Part 2), rated visually after about 3 weeks
# Procedure: as §2
# [9] = test system: Poa annua; experiment: as above; assay type: in vivo; details: post-emergence (Part 2), application rate 320 g/ha, rated visually after about 3 weeks
# Procedure: as §2
# [10] = test system: Stellaria media; experiment: as above; assay type: in vivo; details: post-emergence (Part 2), application rate 320 g/ha, rated visually after about 3 weeks
# Procedure: as §2
# [11] = test system: Abutilon theophrasti; experiment: Herbicidal pre-emergence action (Experimental Part 2, D); assay type: in vivo; details: pre-emergence (Part 2), application rate 1280 g/ha, scored visually after about 3 weeks
# Text: as §1
# [12] = test system: Matricaria inodora; experiment: as above; assay type: in vivo; details: pre-emergence (Part 2), application rate 1280 g/ha, scored visually after about 3 weeks
# Text: as §1
# [13] = test system: Amaranthus retroflexus; experiment: as above; assay type: in vivo; details: pre-emergence (Part 2), application rate 1280 g/ha, scored visually after about 3 weeks
# Text: as §1
smiles,measurement,setting,value
CC(=O)OC1C(C)=CC(=O)N1c1cc(C(F)(F)F)c(Cl)cn1 (stereo not shown) [I.3-451],Effect (inhibition of PS II activity),[1],+++ (90%>inhibition≥70%)
same,"Lolium rigidum, herbicidal activity",[2],90%
same,"Poa Annua, herbicidal activity",[3]; application rate 320 g/ha,90%
same,"Stellaria media, herbicidal activity",[4]; application rate 320 g/ha,100%
same,"Setaria viridis, herbicidal activity",[5],100%
same,"Abutilon theophrasti, herbicidal activity",[6]; application rate 320 g/ha,100%
same,"Matricaria inodora, herbicidal activity",[7]; application rate 320 g/ha,90%
same,"Amaranthus retroflexus, herbicidal activity",[8]; application rate 1280 g/ha,100%
same,"Poa Annua, herbicidal activity",[9],100%
same,"Stellaria media, herbicidal activity",[10],100%
"CSc1nnc(C(C)(C)C)c(=O)n1N [metribuzin, reference compound]",Effect (inhibition of PS II activity),[1],++++ (inhibition≥90%)
CC1=CC(=O)N(c2cc(C(C)C)no2)C1O (stereo not shown) [I.1-289],"Abutilon theophrasti, herbicidal activity",[11],100%
same,"Matricaria inodora, herbicidal activity",[12],100%
same,"Amaranthus retroflexus, herbicidal activity",[13],90%
same,"Poa Annua, herbicidal activity",[3]; application rate 1280 g/ha,100%
same,"Stellaria media, herbicidal activity",[4]; application rate 1280 g/ha,100%
same,"Setaria viridis, herbicidal activity",[5],90%
same,"Abutilon theophrasti, herbicidal activity",[6]; application rate 1280 g/ha,100%
same,"Matricaria inodora, herbicidal activity",[7]; application rate 1280 g/ha,100%
same,"Amaranthus retroflexus, herbicidal activity",[8]; application rate 320 g/ha,100%
CC1=CC(=O)N(c2cc(C(C)(C)C)n(C)n2)C1O (stereo not shown) [I.1-315],Effect (inhibition of PS II activity),[1],++++ (inhibition≥90%)
CC1=CC(=O)N(c2cc(C)ns2)C1O (stereo not shown) [I.1-72],Effect (inhibition of PS II activity),[1],++++ (inhibition≥90%)
same,"Amaranthus retroflexus, herbicidal activity",[13],90%
same,"Stellaria media, herbicidal activity",[4]; application rate 1280 g/ha,90%
same,"Matricaria inodora, herbicidal activity",[7]; application rate 1280 g/ha,100%
same,"Amaranthus retroflexus, herbicidal activity",[8]; application rate 320 g/ha,100%
CC1=CC(=O)N(c2cc(C(F)(F)F)ccn2)C1O (stereo not shown) [I.1-449],Effect (inhibition of PS II activity),[1],++++ (inhibition≥90%)
CC1=CC(O)N(c2cc(C)ns2)C1=O (stereo not shown) [I.2-72],Effect (inhibition of PS II activity),[1],++ (70%>inhibition≥50%)
